Common to all, as to assay: NCI anticancer screen, dose series, 48 h
For experiment [1], the system named is MCF7 breast.
Experiment [2] relates to CCRF-CEM leukemia.
In experiment [3] the test system is OVCAR-3 ovarian.
Experiment [4] deals with ACHN renal.
Experiment [5] deals with HOP-92 NSCLC.
The test system of experiment [6] is A498 renal.
Experiment [7] has as its system SK-MEL-5 melanoma.
Experiment [8] relates to SK-OV-3 ovarian.
Experiment [9] deals with T-47D breast.

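Briefly, cells in 96-well plates were exposed to five compound concentrations for 48 h, and endpoints were estimated by linear interpolation. The concentration for full growth arrest is given as TGI.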

Data on 15 compounds can be found in PubChem BioAssay (NCI).

For the compound `CC(=O)Nc1nnc(S(C)(=O)=O)s1`, the TGI in experiment [1], in [2], in [3], in experiment [4], in [5] and in experiment [6] was greater than 100 µM in each case.

On to `COc1cc(C2C(Cl)C(=O)N2NC(=O)c2ccc(N)cc2)cc(Br)c1O` (centres undefined), for which the TGI in [2] came to 12.1 µM; in experiment [3], 20.8 µM; in [4], 45.1 µM; in experiment [7] it was 31.7 µM; in experiment [5] it was 39.8 µM; in experiment [6] it was 59 µM. This compound also yielded a TGI in [8] of 73 µM.

As for `Ic1cc2c(cc1C1SCCCS1)OCO2`, the TGI in experiment [2], in experiment [3], in [4], in experiment [7], in experiment [5] and in [6] was greater than 100 µM each time. Further, in experiment [8], the TGI is greater than 100 µM.

Turning to `CC(C)(C)C1=CC(=C2C(=O)C(=O)c3ccccc3C2=O)C=C(C(C)(C)C)C1=O`, the TGI in experiment [2] is greater than 100 µM; in experiment [3] it was greater than 100 µM; in experiment [4], greater than 100 µM; in experiment [7], greater than 100 µM; in [5] it was 82.9 µM; in experiment [6], 0.93 µM. The compound also returned a TGI in experiment [8] greater than 100 µM.

For `O=Cc1ccc(CCl)cc1`, the TGI is greater than 100 µM in experiment [2]; 34.9 µM in experiment [3]; 54 µM in [4]; 30.2 µM in experiment [7]; 52.5 µM in [5]; 85.8 µM in experiment [6]. The same compound gave a TGI in experiment [8] of 51.7 µM.

`O=C(OCc1ccccc1)N(CCCCN(CCCNCc1ccccc1)C(=O)OCc1ccccc1)CCCNCc1ccccc1`: the TGI in experiment [1] was greater than 100 µM; in experiment [9] it was 3.57 µM; in [4], 2.93 µM; in experiment [7], greater than 100 µM; in experiment [5], 2.82 µM; in [8], greater than 100 µM.

Consider `COC(=O)C(C/C=C(\C)c1ccc(Cl)cc1)C(C)=O` (centres undefined), for which the TGI in experiment [1] was greater than 100 µM; in experiment [2] it was greater than 100 µM; in [3], greater than 100 µM; in [7], 51.7 µM; in experiment [5] it was 64.2 µM; in [6], greater than 100 µM. The compound also had a TGI in experiment [8] greater than 100 µM.

Regarding `CN1CN(c2ccccc2)C2(CCN(CCC3COc4ccccc4O3)CC2)C1=O` (centres undefined), the TGI in [1] is 72.4 µM; in experiment [2] it was 77.4 µM; in experiment [3], 48.7 µM; in experiment [9], 62.3 µM; in [4], greater than 100 µM; in experiment [7], 28.2 µM. In addition, in [8], the TGI was determined as 71.1 µM.

`CCCCCC/C=C1\CCC(CN2CCOCC2)C1=O` (centres undefined): the TGI was greater than 25.4 µM in [2]; 32.7 µM in [3]; 31.2 µM in [4]; 38.4 µM in experiment [7]; 34.7 µM in experiment [5]; 35.2 µM in experiment [6]. In experiment [8], this compound gave a TGI greater than 79.4 µM.

In the case of `O=C(Nc1cccc2c1[nH]c1c(-c3ccccc3)nccc12)c1ccccc1[N+](=O)[O-]`, the TGI in [2] was greater than 100 µM; in experiment [4], greater than 100 µM; in experiment [5], 9.05 µM; in [6] it was 60.3 µM.

Turning to `O=C1CSC(c2c[nH]c3ccccc23)N1c1ccccc1[N+](=O)[O-]` (centres undefined), the TGI in experiment [1], in [2], in experiment [3], in [9], in [7] and in experiment [5] was greater than 100 µM in each case. In experiment [8], the TGI is greater than 100 µM.

On to `CSc1nc2c(ncn2C2OCC(O)C(O)C2O)c(=O)n1C` (centres undefined), for which the TGI in experiment [1], in experiment [2], in experiment [3], in [7], in experiment [5] and in experiment [6] was greater than 100 µM each time. This compound yielded a TGI in [8] greater than 100 µM.

Turning to `C1CC[C@H]2SSC3CCCC[C@H]3SSC2C1` (some centres undefined), the TGI in experiment [1], in experiment [2], in experiment [3], in experiment [9], in experiment [7] and in [5] was greater than 100 µM in each case. The same compound gave a TGI in experiment [8] greater than 100 µM.

For the compound `C/C(=N\Nc1nc2cccnc2s1)c1ccccn1`, the TGI is greater than 54.8 µM in experiment [1]; greater than 100 µM in experiment [2]; 1.07 µM in experiment [4]; 9.02 µM in [7]; greater than 100 µM in [6]; 2.79 µM in [8].

On to `CC(=O)OC1COC(N2C(=O)C(=O)c3cc(Br)ccc32)C(OC(C)=O)C1OC(C)=O` (centres undefined), for which the TGI in experiment [2], in [3], in experiment [4], in experiment [7], in [5] and in experiment [6] was greater than 100 µM in each case. This compound returned a TGI in [8] greater than 100 µM.
